# From patent US20240252524A1 (Hovione Scientia Limited, priority 2021, published 2024)
# Where “and” joins values, the source holds several entries; their conditions need not be identical. Equal values may be shown once. Read-outs that look alike come from different tables or passages of the source.
# Key:
# [1] = cited from earlier work
# [2] = cited from earlier work; remark: listed apart in the source
# [3] = room temperature, cited from earlier work
# [4] = Stability of ivermectin under the high shear mixer process; type: physicochemical; details: high shear mixer process of the invention
# Description: Under the conditions set forth in this invention, ivermectin is submitted to high shear forces without suffering decomposition. High shear mixing processes provide stressful conditions which promote decomposition of the compounds submitted to such processes. The stressful conditions involve recirculating mixtures of the compounds with solvents, at very high speed, through mechanical systems which generate unaligned forces, driving to strong collisions between the particles and the mechanical parts of the high shear mixer and between the particles themselves. Such collisions break the particles of the product thus reducing their particle size. A side effect of the mechanical collisions is a significant increase in the temperature during the high shear mixer process. […] In fact, ivermectin is purified with good yields under the high shear process conditions set forth in this invention.
# [5] = Particle size by laser diffraction (Sympatec HELOS) before/after high shear mixing; type: physicochemical
# Description: The particle size data were obtained from a Sympatec module HELOS (Helium-Neon Laser Optical System), dispersion Unit RODOS/M, potent products accessory ASPIROS, lens R5 (4.50 μm-875 μm) and R4 (1.80 μm-350 μm), conditions R5, 0.1 bar-1 bar, 18 mm/s, R4, 3 bar, 18 mm/s
substance,measurement,setting,value
Ivermectin,solubility in water,[1],low solubility in water
same,optimum pH for ivermectin stability in solution,[2],6.3
same,Pharmacopoeia Classification,[3]; Acetone,Soluble
same,Solubility,[3]; Acetone,81 mg/mL
same,Pharmacopoeia Classification,[3]; Diethyl ether,Soluble
same,Solubility,[3]; Diethyl ether,61 mg/mL
same,Pharmacopoeia Classification,[3]; Dimethylformamide,Freely soluble
same,Solubility,[3]; Dimethylformamide,510 mg/mL
same,Pharmacopoeia Classification,[3]; Ethanol,Soluble
same,Solubility,[3]; Ethanol,97 mg/mL
same,Pharmacopoeia Classification,[3]; Ethyl acetate,Freely soluble
same,Solubility,[3]; Ethyl acetate,240 mg/mL
same,Pharmacopoeia Classification,[3]; Isopropanol (2-propanol),Soluble
same,Solubility,[3]; Isopropanol (2-propanol),70 mg/mL
same,Pharmacopoeia Classification,[3]; Methanol,Freely soluble
same,Solubility,[3]; Methanol,220 mg/mL
same,Pharmacopoeia Classification,[3]; Methyl Ethyl ketone,Freely soluble
same,Solubility,[3]; Methyl Ethyl ketone,320 mg/mL
same,Pharmacopoeia Classification,[3]; Tetrahydrofuran,Freely soluble
same,Solubility,[3]; Tetrahydrofuran,390 mg/mL
same,Pharmacopoeia Classification,[3]; Toluene,Soluble
same,Solubility,[3]; Toluene,63 mg/mL
same,Pharmacopoeia Classification,[3]; Water,Practically Insoluble
same,Solubility,[3]; Water,0.000001 mg/mL
same,Pharmacopoeia Classification,[3]; n-Hexane,Slightly soluble
same,Solubility,[3]; n-Hexane,0.69 mg/mL
same,Pharmacopoeia Classification,[3]; p-Dioxane,Freely soluble
same,Solubility,[3]; p-Dioxane,430 mg/mL
same,decomposition under high shear mixer process,[4],did not decompose the product
same,D (90) after high shear mixing,"[5]; Example 1: ethanol/water/formamide/methylparaben, 2000 RPM, about 3 hours, 0-5° C.",56 μm
same,Dv(90) after high shear mixing,"[5]; Example 2: ethanol/water/formamide/BHA, 2000 RPM, about 3 hours, 0-5° C.",53 μm
same,Dv(90) after high shear mixing,"[5]; Example 3: ethanol (100 ml)/water (50 ml)/formamide/methylparaben, 2000 RPM, about 3 hours, 0-5° C.",57 μm
same,Dv(90) after high shear mixing,"[5]; Example 4: water/isopropanol/formamide/methylparaben, 2000 RPM, about 3 hours, 0-5° C.",56 μm
same,Dv(90) after high shear mixing,"[5]; Example 5: water (16 ml)/ethanol (16 ml)/formamide, 1000 RPM, about 2 hours, 0-5° C.",42 μm
same,Dv(90) after high shear mixing,"[5]; Example 6: water (26 ml)/ethanol (30 ml)/formamide, 1000 RPM, about 2 hours, 0-5° C.",36 μm
same,Dv(90) after high shear mixing,"[5]; Example 7: water (1 ml)/ethanol (30 ml)/formamide, 1000 RPM, about 2 hours, 0-5° C.",56 μm
same,D (90) / Dv(90) of starting ivermectin,[5]; before high shear mixing,301 μm and 295 μm and 300 μm
